Experimental data from patent US6284768A, “Src family SH2 domain inhibitors” (Boehringer Ingelheim Pharmaceuticals, Inc., priority 1999, dated 2001).

molecular target: T1, p56lck GST-SH2 (lck SH2 domain) (Homo sapiens, UniProt P06239); test: Receptor-ligand equilibrium binding constants by surface plasmon resonance (biosensor), lck SH2 domain; conditions: Table 1, compounds of formula (II)
T1 construct: GST (N)
Protocol: The general methods for the determination of Receptor-Ligand Kinetic and Equilibrium Binding Constants using Surface Plasmon Resonance as applied to the lck SH2 Domain have been described in: M. M. Morelock, R. H. Ingraham, R. Betageri.
General Biosensor Methods.
The mobile phase buffer, 10 mM HEPES, pH 7.4, 150 mM NaCl, and 0.05% P-20, was maintained at a flow rate of 5 μL/min in all experiments. All buffers and protein solutions were filtered through a 0.2 um filter and degassed immediately before use.
Strepavidin was diluted to 0.25 mg/ml in 20 mM NaOAc buffer, pH 4.5 and immobilized by free amine coupling to approximately 3000 RU for all 4 flow cells from a single sensor chip .
Surface Kd Determinations.
The surface was regenerated by 4μL of 20 mM HCl followed by 4 μL of 150 mM Tris base. The values used in the analysis were the equilibrium plateau values from which the sample refractive index has been subtracted. For the data analyzed for linear function the equilibrium plateau values without the sample refractive index subtracted were used. Free solution Kd determinations. In a 96 well microtiter plate 20 nM SH2 domain suspended in running buffer containing 0.2 mg/ml BSA and 1 mM DT'T was distributed in 100 μL per well. The highest concentration of compound tested was added to the last well and titrated with 2 fold dilutions for a final of 10 concentrations to be run. 25 μL of the mixture was injected over a strepavidin-biotin-ε-aminohexanoic acid-EGQpYEEIPIA surface and regenerated with 4 μL of 20 mM HCl. […], of 150 mM Tris base was injected after every 11 samples. Typically 8 assays were run in an overnight programmed run.

T1 sequence (P06239 127-224 limits assumed): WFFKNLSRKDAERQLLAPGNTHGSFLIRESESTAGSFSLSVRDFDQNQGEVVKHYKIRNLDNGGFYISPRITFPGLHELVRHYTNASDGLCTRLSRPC

Row | SMILES | Kd
1 | COC1CCC(Cn2ccc(C)c(NC(=O)C(Cc3ccc(C(C)(C)C(=O)O)cc3)NC(=O)C(C)(C)c3ccc4ccccc4c3)c2=O)CC1 (stereo not shown) [Compound 235] | 6.2 µM
2 | COc1ccc(Cn2cc(Br)c(C)c(NC(=O)[C@H](Cc3ccc(C(C)(C)C(=O)O)cc3)NC(=O)C(C)(C)c3ccc(C(F)(F)F)cc3)c2=O)cc1 [Compound 227] | 0.37 µM
3 | COc1ccc(Cn2ccc(C)c(NC(=O)[C@H](Cc3ccc(C(C)(C)C(=O)O)cc3)NC(=O)Cc3ccc(N(Cc4ccccc4)Cc4ccccc4)cc3)c2=O)cc1 [Compound 131] | > 1.3 µM
4 | CCCCCCn1ccc(C)c(NC(=O)C(Cc2ccc(C(C)(C)C(=O)O)cc2)NC(=O)Cc2ccccc2OC)c1=O (stereo not shown) [Compound 207] | 1.7 µM
5 | COc1ccc(Cn2ccc(C)c(NC(=O)[C@H](Cc3ccc(NC(=O)C(=O)O)cc3)NC(=O)Cc3sc(N)nc3-c3ccccc3)c2=O)cc1 [Compound 11] | 2.9 µM
6 | CCC(=O)N[C@@H](Cc1ccc(CC(=O)O)cc1)C(=O)Nc1c(C)ccn(Cc2ccc(OC)cc2)c1=O [Compound 74] | 14 µM
7 | COc1ccc(Cn2ccc(C)c(NC(=O)[C@H](Cc3ccc(CC(=O)O)cc3)NC(=O)COc3cccc4ccccc34)c2=O)cc1 [Compound 72] | 2.5 µM
8 | COc1ccc(Cn2c(C)cc(C)c(NC(=O)[C@H](Cc3ccc(CC(=O)O)cc3)NC(=O)Cc3cccc4ccccc34)c2=O)cc1 [Compound 91] | 4.8 µM
9 | Cc1ccn(CC2CCOC2)c(=O)c1NC(=O)C(Cc1ccc(C(C)(C)C(=O)O)cc1)NC(=O)Cc1ccc2ccccc2c1 (stereo not shown) [Compound 211] | 4.9 µM
10 | CCCCCn1ccc(C)c(NC(=O)[C@H](Cc2ccc(CC(=O)O)cc2)NC(=O)Cc2cccc3ccccc23)c1=O [Compound 70] | 24 µM
11 | COc1ccc(Cn2ccc(C)c(NC(=O)[C@H](Cc3ccc(NC(=O)C(=O)O)cc3)NC(=O)Cc3csc(NC=O)n3)c2=O)cc1 [Compound 13] | 4.6 µM
12 | COc1ccc(Cn2ccc(C)c(NC(=O)[C@H](Cc3ccc(NC(=O)C(=O)O)cc3)NC(=O)Cc3ccccc3N(C)C)c2=O)cc1 [Compound 35] | 4 µM
13 | COc1ccc(Cn2ccc(C)c(NC(=O)[C@H](Cc3ccc(CC(=O)O)cc3)NC(=O)Cc3cccc(O)c3)c2=O)cc1 [Compound 165] | 2.8 µM
14 | COc1ccc(Cn2ccc(C)c(NC(=O)[C@H](Cc3ccc(C(C)(C)C(=O)O)cc3)NC(=O)[C@H](C)c3cccc4ccccc34)c2=O)cc1 [Compound 44] | 1.5 µM
15 | COc1ccc(Cn2ccc(C)c(NC(=O)[C@H](Cc3ccc(C(F)(F)P(=O)(O)O)cc3)NC(=O)Cc3cccc4ccccc34)c2=O)cc1 [Compound 66] | 0.43 µM
16 | COc1ccc(Cn2ccc(C)c(NC(=O)[C@H](Cc3ccc(CC(=O)O)cc3)NC(C)=O)c2=O)cc1 [Compound 89] | 19 µM
17 | COc1ccc(Cn2ccc(C)c(NC(=O)[C@H](Cc3ccc(CC(=O)O)cc3)NC(=O)C(C)C)c2=O)cc1 [Compound 75] | 6.7 µM
18 | COc1ccc(Cn2ccc(C)c(NC(=O)[C@H](Cc3ccc(NC(=O)C(=O)O)cc3)NC(=O)Cc3ccc(N(C)C)cc3)c2=O)cc1 [Compound 22] | 1.8 µM
19 | COc1ccc(Cn2ccc(C)c(NC(=O)[C@H](Cc3ccc(CC(=O)O)cc3)NC(=O)C(C)(C)c3ccccc3)c2=O)cc1 [Compound 76] | 8.6 µM
20 | CCCCCn1ccc(C)c(NC(=O)C(Cc2ccc(C(C)(C)C(=O)O)cc2)NC(=O)C(C)(C)c2ccc3ccccc3c2)c1=O (stereo not shown) [Compound 193] | 4.1 µM
21 | COc1ccc(Cn2ccc(C)c(NC(=O)[C@H](Cc3ccc(CC(=O)O)cc3)NC(=O)C3(c4ccccc4)CC3)c2=O)cc1 [Compound 77] | 20 µM
22 | COc1ccc(Cn2ccc(C)c(NC(=O)[C@H](Cc3ccc(CC(=O)O)cc3)NC(=O)Cc3cccc(Oc4ccccc4)c3)c2=O)cc1 [Compound 61] | 3.3 µM
23 | COc1ccc(Cn2ccc(C)c(NC(=O)[C@H](Cc3ccc(NC(=O)C(=O)O)cc3)NC(=O)N(C)c3cccc4ccccc34)c2=O)cc1 [Compound 25] | 2.1 µM
24 | COCCOCCn1ccc(C)c(NC(=O)C(Cc2ccc(C(C)(C)C(=O)O)cc2)NC(=O)C(C)(C)c2ccc3ccccc3c2)c1=O (stereo not shown) [Compound 144] | 20 µM

Row | SMILES | Kd
25 | COc1cccc(Cn2ccc(C)c(NC(=O)[C@H](Cc3ccc(CC(=O)O)cc3)NC(=O)Cc3cccc4ccccc34)c2=O)c1 [Compound 20] | 19.4 µM
26 | COc1ccc(Cn2cc(Br)c(C)c(NC(=O)C(Cc3ccc(C(C)(C)C(=O)O)cc3)NC(=O)C(C)(C)c3ccc(Br)cc3)c2=O)cc1 (stereo not shown) [Compound 122] | 5.3 µM
27 | COc1ccc(Cn2ccc(C)c(NC(=O)C(Cc3ccc(C(C)(C)C(=O)O)cc3)N(C)C(=O)Cc3ccc4ccccc4c3)c2=O)cc1 (racemic) [Compound 152, 3-[2'-(R,S)-(N-Methyl-N-(2""-naphthylacetyl)amino-3'-[4"-(1'"-carboxy-1'"-methyl)ethyl]benzene]propanoylamino-1-(4-methoxybenzyl)-4-methyl-2-pyridone] | 4.5 µM
28 | CCCCCn1ccc(C)c(NC(=O)[C@H](Cc2ccc(CC(=O)O)cc2)NC(=O)C(C)(C)C)c1=O [Compound 69] | 89 µM
29 | CCN(CC)c1ccc(CC(=O)N[C@@H](Cc2ccc(NC(=O)C(=O)O)cc2)C(=O)Nc2c(C)ccn(Cc3ccc(OC)cc3)c2=O)cc1 [Compound 40] | 1.9 µM
30 | COc1ccc(Cn2ccc(C)c(NC(=O)[C@H](Cc3ccc(CC(=O)O)cc3)NC(=O)OCc3ccccc3)c2=O)cc1 [Compound 57] | 15 µM
31 | COc1ccc(Cn2ccc(C)c(NC(=O)[C@H](Cc3ccc(NC(=O)C(=O)O)cc3)NC(=O)Cc3cccc([N+](=O)[O-])c3)c2=O)cc1 [Compound 105] | 0.82 µM
32 | COc1ccc(Cn2ccc(C)c(NC(=O)[C@H](Cc3ccc(NC(=O)C(=O)O)cc3)NC(=O)Cc3c[nH]c4ccc(O)cc34)c2=O)cc1 [Compound 27] | 2.5 µM
33 | COc1ccc(Cn2ccc(C)c(NC(=O)[C@H](Cc3ccc(CC(=O)O)cc3)NC(=O)COc3nccc4ccccc34)c2=O)cc1 [Compound 85] | 2.6 µM
34 | COc1ccc(Cn2ccc(C)c(NC(=O)[C@H](Cc3ccc(NC(=O)C(=O)O)cc3)NC(=O)Cc3ccc(NC(=O)C(C)(C)C)cc3)c2=O)cc1 [Compound 104] | 0.65 µM
35 | COc1ccc(Cn2ccc(C)c(NC(=O)[C@H](Cc3ccc(CC(=O)O)cc3)NC(=O)Cc3cccc4ccccc34)c2=O)cc1 [Compound 88] | 4.4 µM
36 | COc1ccc(Cn2ccc(C)c(NC(=O)[C@H](Cc3ccc(C(CO)C(=O)O)cc3)NC(=O)Cc3cccc4ccccc34)c2=O)cc1 (stereo partly drawn) [Compound 136, 3-[2'-(S)-(1'"-Naphthylacetyl)amino-3'-[4"-(1'"-(R,S)-carboxy-2'"-hydroxy)ethyl]benzene]propanoylamino-1-(4-methoxybenzyl)-4-methyl-2-pyridone] | 5.6 µM
37 | COc1ccc(Cn2ccc(C)c(NC(=O)[C@H](Cc3ccc(CC(=O)O)cc3)NC(=O)[C@@H](C)c3ccc4cc(OC)ccc4c3)c2=O)cc1 [Compound 62] | 8.8 µM
38 | COc1ccc(Cn2ccc(C)c(NC(=O)[C@H](Cc3ccc(NC(=O)C(=O)O)cc3)NC(=O)Cc3ccc4ccccc4c3)c2=O)cc1 [Compound 32] | 0.35 µM
39 | Cc1ccn(Cc2ccc(C(=O)C(F)(F)F)cc2)c(=O)c1NC(=O)C(Cc1ccc(C(C)(C)C(=O)O)cc1)NC(=O)C(C)(C)c1ccc2ccccc2c1 (stereo not shown) [Compound 225] | 41 µM
40 | COc1ccc(Cn2ccc(C)c(NC(=O)[C@H](Cc3ccc(NC(=O)C(=O)O)cc3)NC(=O)Cc3csc(N)n3)c2=O)cc1 [Compound 10] | 6.7 µM
41 | COc1ccc(Cn2ccc(C)c(NC(=O)[C@H](Cc3ccc(NC(=O)C(=O)O)cc3)NC(=O)Cc3cccc(N(C)C)c3)c2=O)cc1 [Compound 49] | 2.1 µM
42 | COc1ccc(Cn2ccc(C)c(NC(=O)C(Cc3ccc(C(C)(C)C(=O)O)cc3)NC(=O)C(F)(F)F)c2=O)cc1 (stereo not shown) [Compound 176] | 1.8 µM
43 | COCCOCn1ccc(C)c(NC(=O)C(Cc2ccc(C(C)(C)C(=O)O)cc2)NC(=O)Cc2cccc3ccccc23)c1=O (stereo not shown) [Compound 188] | 45 µM
44 | COc1ccc(Cn2ccc(C)c(NC(=O)[C@H](Cc3ccc(NC(=O)C(=O)O)cc3)NC(=O)OC(C)(C)C)c2=O)cc1 [Compound 4] | 42.5 µM
45 | Cc1ccn(Cc2ccoc2)c(=O)c1NC(=O)C(Cc1ccc(C(C)(C)C(=O)O)cc1)NC(=O)Cc1cccc2ccccc12 (stereo not shown) [Compound 201] | 6.7 µM
46 | CCCCCCn1cc(C(=O)OC)c(C)c(NC(=O)C(Cc2ccc(C(C)(C)C(=O)O)cc2)NC(=O)Cc2ccc3ccccc3c2)c1=O (stereo not shown) [Compound 240] | 0.74 µM
47 | COc1ccc(Cn2ccc(C)c(NC(=O)C(Cc3ccc(C(C)(C)C(=O)O)cc3)NC(=O)Cc3ccc4ccccc4c3)c2=O)cc1O (stereo not shown) [Compound 160] | 5.8 µM
48 | CCc1ccn(Cc2ccc(OC)cc2)c(=O)c1NC(=O)[C@H](Cc1ccc(CC(=O)O)cc1)NC(=O)Cc1cccc2ccccc12 [Compound 92, 3-[2'-(S)-(1'"-Naphthylacetyl)amino-3'-(4"-carboxymethyl)benzene]propanoylamino-1-(4-methoxy)benzyl-4-ethyl-2-pyridone] | 3.8 µM

same assay, conditions: Table 2, compounds of formula (III)

Row | SMILES | Kd
49 | COc1ccc(Cn2ncc(C)c(NC(=O)C(Cc3ccc(C(C)(C)C(=O)O)cc3)NC(=O)Cc3ccccc3[N+](=O)[O-])c2=O)cc1 (stereo not shown) [Compound 247] | 5.2 µM
